Source: the supplement of paper PMC10307832

Assays:
Experiment in all cases: relative viability (nuclei count vs DMSO), 5 days (fraction); higher = more cells survive
BI-D1870 + Tozasertib = compound: CC(C)CCN1c2nc(Nc3cc(F)c(O)c(F)c3)ncc2N(C)C(=O)C1C [BI-D1870] + Cc1cc(Nc2cc(N3CCN(C)CC3)nc(Sc3ccc(NC(=O)C4CC4)cc3)n2)n[nH]1 [Tozasertib] (partner 0.1 µM)
In short: (§1)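 One day after seeding in 1536-well plates, lung cancer cell lines were dosed by pin tool. Dosing was either single-drug or a fixed anchor-drug dose plus five library-drug doses (not always all listed) in √10 steps. After 5 days, nuclei were stained in one fix-and-stain step and counted on 4× images, and relative viability is the nuclei count of treated wells over that of vehicle wells, given as the median of duplicate plates.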

Zebularine + Palbociclib = compound: O=c1ncccn1[C@@H]1O[C@H](CO)[C@@H](O)[C@H]1O [Zebularine] + CC(=O)c1c(C)c2cnc(Nc3ccc(N4CCNCC4)cn3)nc2n(C2CCCC2)c1=O [Palbociclib] (partner 0.5 µM)
In short: as §1

Zebularine + Navitoclax = compound: O=c1ncccn1[C@@H]1O[C@H](CO)[C@@H](O)[C@H]1O [Zebularine] + CC1(C)CCC(c2ccc(Cl)cc2)=C(CN2CCN(c3ccc(C(=O)NS(=O)(=O)c4ccc(N[C@H](CCN5CCOCC5)CSc5ccccc5)c(S(=O)(=O)C(F)(F)F)c4)cc3)CC2)C1 [Navitoclax] (partner 0.5 µM)
In short: as §1

Zebularine + Linsitinib = compound: O=c1ncccn1[C@@H]1O[C@H](CO)[C@@H](O)[C@H]1O [Zebularine] + C[C@]1(O)C[C@@H](c2nc(-c3ccc4ccc(-c5ccccc5)nc4c3)c3c(N)nccn32)C1 [Linsitinib] (partner 1 µM)
In short: as §1

Cell Line: NCI-H23
- relative viability (BI-D1870 + Tozasertib; first compound 0.04 µM): 0.433
- relative viability (BI-D1870 + Tozasertib; first compound 0.1265 µM): 0.26
- relative viability (BI-D1870 + Tozasertib; first compound 0.4 µM): 0.267
- relative viability (BI-D1870 + Tozasertib; first compound 1.265 µM): 0.314
- relative viability (BI-D1870 + Tozasertib; first compound 4 µM): 0.214
- relative viability (Zebularine + Palbociclib; first compound 1 µM): 0.482
- relative viability (Zebularine + Palbociclib; first compound 3.162 µM): 0.473
- relative viability (Zebularine + Palbociclib; first compound 31.62 µM): 0.576
- relative viability (Zebularine + Palbociclib; first compound 100 µM): 0.411
- relative viability (Zebularine + Navitoclax; first compound 1 µM): 0.775
- relative viability (Zebularine + Navitoclax; first compound 3.162 µM): 0.802
- relative viability (Zebularine + Navitoclax; first compound 31.62 µM): 0.818
- relative viability (Zebularine + Navitoclax; first compound 100 µM): 0.86
- relative viability (Zebularine + Linsitinib; first compound 1 µM): 0.671
- relative viability (Zebularine + Linsitinib; first compound 3.162 µM): 0.549
- relative viability (Zebularine + Linsitinib; first compound 31.62 µM): 0.646
- relative viability (Zebularine + Linsitinib; first compound 100 µM): 0.548

Cell Line: NCI-H1395
- relative viability (BI-D1870 + Tozasertib; first compound 0.04 µM): 0.818
- relative viability (BI-D1870 + Tozasertib; first compound 0.1265 µM): 0.685
- relative viability (BI-D1870 + Tozasertib; first compound 0.4 µM): 0.718
- relative viability (BI-D1870 + Tozasertib; first compound 1.265 µM): 0.72
- relative viability (BI-D1870 + Tozasertib; first compound 4 µM): 0.721
- relative viability (Zebularine + Palbociclib; first compound 1 µM): 0.664
- relative viability (Zebularine + Palbociclib; first compound 3.162 µM): 0.659
- relative viability (Zebularine + Palbociclib; first compound 10 µM): 0.621
- relative viability (Zebularine + Palbociclib; first compound 31.62 µM): 0.512
- relative viability (Zebularine + Palbociclib; first compound 100 µM): 0.518
- relative viability (Zebularine + Navitoclax; first compound 1 µM): 0.99
- relative viability (Zebularine + Navitoclax; first compound 3.162 µM): 1.37
- relative viability (Zebularine + Navitoclax; first compound 10 µM): 0.919
- relative viability (Zebularine + Navitoclax; first compound 31.62 µM): 0.629
- relative viability (Zebularine + Navitoclax; first compound 100 µM): 0.473
- relative viability (Zebularine + Linsitinib; first compound 1 µM): 1.03
- relative viability (Zebularine + Linsitinib; first compound 3.162 µM): 1.09
- relative viability (Zebularine + Linsitinib; first compound 10 µM): 0.869
- relative viability (Zebularine + Linsitinib; first compound 31.62 µM): 0.653
- relative viability (Zebularine + Linsitinib; first compound 100 µM): 0.533

Cell Line: 201T
- relative viability (BI-D1870 + Tozasertib; first compound 0.04 µM): 0.993
- relative viability (BI-D1870 + Tozasertib; first compound 0.1265 µM): 0.905
- relative viability (BI-D1870 + Tozasertib; first compound 0.4 µM): 0.935
- relative viability (BI-D1870 + Tozasertib; first compound 1.265 µM): 0.955
- relative viability (BI-D1870 + Tozasertib; first compound 4 µM): 0.936
- relative viability (Zebularine + Palbociclib; first compound 1 µM): 0.406
- relative viability (Zebularine + Palbociclib; first compound 3.162 µM): 0.355
- relative viability (Zebularine + Palbociclib; first compound 10 µM): 0.325
- relative viability (Zebularine + Palbociclib; first compound 31.62 µM): 0.411
- relative viability (Zebularine + Palbociclib; first compound 100 µM): 0.39
- relative viability (Zebularine + Navitoclax; first compound 1 µM): 1.21
- relative viability (Zebularine + Navitoclax; first compound 3.162 µM): 1.21
- relative viability (Zebularine + Navitoclax; first compound 10 µM): 0.981
- relative viability (Zebularine + Navitoclax; first compound 31.62 µM): 1.19
- relative viability (Zebularine + Navitoclax; first compound 100 µM): 1.18
- relative viability (Zebularine + Linsitinib; first compound 1 µM): 1.13
- relative viability (Zebularine + Linsitinib; first compound 3.162 µM): 1.02
- relative viability (Zebularine + Linsitinib; first compound 10 µM): 1.05
- relative viability (Zebularine + Linsitinib; first compound 31.62 µM): 1.09
- relative viability (Zebularine + Linsitinib; first compound 100 µM): 1.04

Cell Line: NCI-H460
- relative viability (BI-D1870 + Tozasertib; first compound 0.04 µM): 0.467
- relative viability (BI-D1870 + Tozasertib; first compound 0.1265 µM): 0.0966
- relative viability (BI-D1870 + Tozasertib; first compound 0.4 µM): 0.104
- relative viability (BI-D1870 + Tozasertib; first compound 1.265 µM): 0.0609
- relative viability (BI-D1870 + Tozasertib; first compound 4 µM): 0.0499
- relative viability (Zebularine + Palbociclib; first compound 1 µM): 0.201
- relative viability (Zebularine + Palbociclib; first compound 3.162 µM): 0.136
- relative viability (Zebularine + Palbociclib; first compound 10 µM): 0.161
- relative viability (Zebularine + Palbociclib; first compound 31.62 µM): 0.117
- relative viability (Zebularine + Palbociclib; first compound 100 µM): 0.0697
- relative viability (Zebularine + Navitoclax; first compound 1 µM): 1.26
- relative viability (Zebularine + Navitoclax; first compound 3.162 µM): 1.18
- relative viability (Zebularine + Navitoclax; first compound 10 µM): 0.0689
- relative viability (Zebularine + Navitoclax; first compound 31.62 µM): 0.413
- relative viability (Zebularine + Navitoclax; first compound 100 µM): 0.0857
- relative viability (Zebularine + Linsitinib; first compound 1 µM): 1.21
- relative viability (Zebularine + Linsitinib; first compound 3.162 µM): 1.06
- relative viability (Zebularine + Linsitinib; first compound 10 µM): 0.272
- relative viability (Zebularine + Linsitinib; first compound 31.62 µM): 0.388
- relative viability (Zebularine + Linsitinib; first compound 100 µM): 0.0365

Cell Line: HCC-15
- relative viability (BI-D1870 + Tozasertib; first compound 0.04 µM): 0.523
- relative viability (BI-D1870 + Tozasertib; first compound 0.1265 µM): 0.347
- relative viability (BI-D1870 + Tozasertib; first compound 0.4 µM): 0.33
- relative viability (BI-D1870 + Tozasertib; first compound 1.265 µM): 0.333
- relative viability (BI-D1870 + Tozasertib; first compound 4 µM): 0.185
- relative viability (Zebularine + Palbociclib; first compound 1 µM): 0.887
- relative viability (Zebularine + Palbociclib; first compound 3.162 µM): 0.757
- relative viability (Zebularine + Palbociclib; first compound 10 µM): 0.521
- relative viability (Zebularine + Palbociclib; first compound 31.62 µM): 0.506
- relative viability (Zebularine + Palbociclib; first compound 100 µM): 0.3
- relative viability (Zebularine + Navitoclax; first compound 1 µM): 0.775
- relative viability (Zebularine + Navitoclax; first compound 3.162 µM): 0.72
- relative viability (Zebularine + Navitoclax; first compound 10 µM): 0.507
- relative viability (Zebularine + Navitoclax; first compound 31.62 µM): 0.781
- relative viability (Zebularine + Navitoclax; first compound 100 µM): 0.469
- relative viability (Zebularine + Linsitinib; first compound 1 µM): 0.983
- relative viability (Zebularine + Linsitinib; first compound 3.162 µM): 0.883
- relative viability (Zebularine + Linsitinib; first compound 10 µM): 0.615
- relative viability (Zebularine + Linsitinib; first compound 31.62 µM): 0.773
- relative viability (Zebularine + Linsitinib; first compound 100 µM): 0.251

Cell Line: NCI-H441
- relative viability (BI-D1870 + Tozasertib; first compound 0.04 µM): 0.56
- relative viability (BI-D1870 + Tozasertib; first compound 0.1265 µM): 0.531
- relative viability (BI-D1870 + Tozasertib; first compound 0.4 µM): 0.59
- relative viability (BI-D1870 + Tozasertib; first compound 1.265 µM): 0.504
- relative viability (BI-D1870 + Tozasertib; first compound 4 µM): 0.407
- relative viability (Zebularine + Palbociclib; first compound 1 µM): 0.235
- relative viability (Zebularine + Palbociclib; first compound 3.162 µM): 0.21
- relative viability (Zebularine + Palbociclib; first compound 10 µM): 0.207
- relative viability (Zebularine + Palbociclib; first compound 31.62 µM): 0.148
- relative viability (Zebularine + Palbociclib; first compound 100 µM): 0.181
- relative viability (Zebularine + Navitoclax; first compound 1 µM): 0.815
- relative viability (Zebularine + Navitoclax; first compound 3.162 µM): 0.467
- relative viability (Zebularine + Navitoclax; first compound 10 µM): 0.366
- relative viability (Zebularine + Navitoclax; first compound 31.62 µM): 0.368
- relative viability (Zebularine + Navitoclax; first compound 100 µM): 0.245
- relative viability (Zebularine + Linsitinib; first compound 1 µM): 0.581
- relative viability (Zebularine + Linsitinib; first compound 3.162 µM): 0.548
- relative viability (Zebularine + Linsitinib; first compound 10 µM): 0.291
- relative viability (Zebularine + Linsitinib; first compound 31.62 µM): 0.249
- relative viability (Zebularine + Linsitinib; first compound 100 µM): 0.234

Cell Line: EPLC-272H
- relative viability (BI-D1870 + Tozasertib; first compound 0.04 µM): 0.37
- relative viability (BI-D1870 + Tozasertib; first compound 0.1265 µM): 0.242
- relative viability (BI-D1870 + Tozasertib; first compound 0.4 µM): 0.232
- relative viability (BI-D1870 + Tozasertib; first compound 1.265 µM): 0.247
- relative viability (BI-D1870 + Tozasertib; first compound 4 µM): 0.238
- relative viability (Zebularine + Palbociclib; first compound 1 µM): 0.375
- relative viability (Zebularine + Palbociclib; first compound 10 µM): 0.326
- relative viability (Zebularine + Palbociclib; first compound 31.62 µM): 0.324
- relative viability (Zebularine + Palbociclib; first compound 100 µM): 0.344
- relative viability (Zebularine + Navitoclax; first compound 1 µM): 1.45
- relative viability (Zebularine + Navitoclax; first compound 31.62 µM): 1.26
- relative viability (Zebularine + Navitoclax; first compound 100 µM): 0.639
- relative viability (Zebularine + Linsitinib; first compound 1 µM): 1.62
- relative viability (Zebularine + Linsitinib; first compound 31.62 µM): 1.05
- relative viability (Zebularine + Linsitinib; first compound 100 µM): 0.746
